Consider two molecules from patent US7189679B2, “Herbicidal 3-amino-2-thiomethylbenzoylpyrazoles” (Bayer CropScience GmbH, priority 2004, dated 2007).

Holding throughout (assay type): in vivo
Series [1] concerns Echinochloa crus-galli. The series can be described thus: Crop plant tolerance test, action against weed plants. Conditions: 100 g/ha, visual scoring four to five weeks after application. As for the experimental part: (§1) Seeds of mono- and dicotyledonous weed plants are placed in sandy loam in cardboard pots, covered with soil and grown in the greenhouse under good growth conditions. Two to three weeks after sowing, the test plants are treated at the three-leaf stage. The compounds according to the invention, formulated as wettable powders or as emulsifiable concentrates, are sprayed at various dosages onto the surface of the green plant parts at an application rate of 600 to 800 l of water per ha (converted). After the test plants have been left to stand in the greenhouse for 3 to 4 weeks under optimal growth conditions, the effect of the compounds is scored.
(§2) In further greenhouse experiments, seeds of barley and of monocotyledonous and dicotyledonous weed plants are placed in sandy loam, covered with soil and placed in the greenhouse until the plants have developed two to three true leaves. Then they are treated with the compounds of the formula (I) according to the invention, as described above in section 2.

A further series concerns Cyperus serotinus. The description is as above. Conditions: 100 g/ha, visual scoring four to five weeks after application. As for the experimental part:
(§3) Seeds of mono- and dicotyledonous weed plants are placed in sandy loam in cardboard pots, covered with soil and grown in the greenhouse under good growth conditions. Two to three weeks after sowing, the test plants are treated at the three-leaf stage. The compounds according to the invention, formulated as wettable powders or as emulsifiable concentrates, are sprayed at various dosages onto the surface of the green plant parts at an application rate of 600 to 800 l of water per ha (converted). […]
as §2

Another series has as its system Sagittaria pygmaea. The series is described as above. The conditions noted are these: 100 g/ha, visual scoring four to five weeks after application. On the procedure:
as §3, §2

A further series has as its system Scirpus juncoides. The series is described as above. Conditions: 100 g/ha, visual scoring four to five weeks after application. On the procedure: as §3, §2
The test system of another series is rice. The series can be described thus: Crop plant tolerance test, damage to crop plant. Conditions: 100 g/ha, visual scoring four to five weeks after application.
The test system of another series is Amaranthus retroflexus. The series can be described thus: Post-emergence herbicidal action against weed plants. Conditions: three-leaf stage, 320 g/ha, scored after 3 to 4 weeks. On the procedure:
as §1

Another series deals with Fallopia convolvulus. Described as above. Conditions: three-leaf stage, 320 g/ha, scored after 3 to 4 weeks. On the procedure:
as §1

In another series the test system is Sinapis arvensis. The series is described as above. Conditions: three-leaf stage, 320 g/ha, scored after 3 to 4 weeks. As for the experimental part: as §1
Series [2] deals with Echinochloa crus-galli. The series is described as above. Conditions: three-leaf stage, 320 g/ha, scored after 3 to 4 weeks. As for the experimental part: as §1
Another series has as its system Setaria viridis. The description is as above. The conditions noted are these: three-leaf stage, 320 g/ha, scored after 3 to 4 weeks. On the procedure:
as §1

The next series has as its system Chenopodium album. Described as above. The conditions noted are these: three-leaf stage, 320 g/ha, scored after 3 to 4 weeks. On the procedure: as §1
For another series, the system named is Stellaria media. The series is described as above. The conditions noted are these: three-leaf stage, 320 g/ha, scored after 3 to 4 weeks. On the procedure: as §1

On to `CCn1ncc(C(=O)c2ccc(Br)c(N)c2CS(C)(=O)=O)c1O` [compound 6], for which the “action against Echinochloa crus-galli” value in the series on Echinochloa crus-galli [1] is recorded as “at least 95%”. Further, in the series with Cyperus serotinus, the “action against Cyperus serotinus” value is on record as “at least 95%”. Also, the “action against Sagittaria pygmaea” value with Sagittaria pygmaea is recorded as “at least 95%”. The “action against Scirpus juncoides” value in the series with Scirpus juncoides was “at least 95%”. Also, the “damage to the crop plant rice” value with rice was “no damage”.
Turning to `CCCS(=O)(=O)Oc1c(C(=O)c2ccc(Br)c(N)c2CS(C)(=O)=O)c(C)nn1C` [compound 4], in the series with Amaranthus retroflexus, the “activity against Amaranthus retroflexus” value is “at least 90%”. In addition, the “activity against Fallopia convolvulus” value in the series on Fallopia convolvulus was “at least 90%”. Besides, in the series with Sinapis arvensis, the “activity against Sinapis arvensis” value is recorded as “at least 90%”. Further, the “activity against Echinochloa crus-galli” value in the series with Echinochloa crus-galli [2] was “at least 90%”. Further, the “activity against Setaria viridis” value in the series on Setaria viridis was “at least 90%”. Besides, in the series on Chenopodium album, the “activity against Chenopodium album” value is given as “at least 90%”. In addition, the “activity against Stellaria media” value in the series on Stellaria media was “at least 90%”.
